According to patent publication US20240109934A1, “ANTIBIOTICS WITH IMPROVED DRUG RESISTANCE PROFILE” (priority 2021, published 2024):
In brackets after ≈: the same amount, converted by molar mass. Like-named read-outs stand apart in the source and are kept apart here.

Experiments:
S. aureus ATCC 29213 [1] = assay: MIC by micro-dilution broth method (CLSI); format: cell-based
[2] = test system: human foreskin fibroblasts (HFF-1); assay: Cell viability, Alamar Blue assay; format: cell-based; settings: 72 h incubation, error SEM n = 2, read-out: IC50, Mammalian Toxicity in HFF-1
Method: Cell Culture. HFF-1 cells were obtained from ATCC. HFF-1 cells were grown in DMEM with 15% fetal bovine serum (Gemini Benchmark, Cat #100-106), 100 U/mL penicillin, and 100 μg/mL streptomycin. All cells were cultured at 37° C. in a 5% CO2 environment. Media was prepared by the University of Illinois School of Chemical Sciences Cell Media Facility.
Cell Viability. Cells were harvested, seeded in a 96 well-plate and allowed to adhere. Cells were treated with investigational compounds in DMSO (1% final concentration). Cells were incubated for 72 h before viability was assessed by the Alamar Blue Assay. Raptinal ([…]) was used as a dead control.

S. aureus ATCC 29213 [3] = assay: Resistance frequency, large inoculum method; format: cell-based
Method: Selection of Resistant Mutants. Resistant mutants were selected via the large inoculum method. Briefly, S. aureus ATCC 29213 (1×10^9 CFU) were plated on 100 mm plates of LB agar containing 4, 2, 1, 0.5, and 0.25 μg/mL.

S. aureus 29213 = assay: MIC shift with 50% human serum; format: cell-based; settings: S. aureus 29213, 50% human serum vs none
Method: Antimicrobial Susceptibility Tests. Susceptibility testing was performed in biological triplicate, using the micro-dilution broth method as outlined by the Clinical and Laboratory Standards Institute. […] Human serum (Ultrafiltrate, unspecified gender, 30K Dalton membrane filtered) was purchased from BioIVT (Hicksville, NY).

[4] = Mouse liver microsome stability assay; format: in vitro ADME; settings: 3 h at 37° C., LC-MS/MS, ± SEM of 3 biological replicates
Method: Mouse Liver Microsome Stability Assay. A mixture of PBS (pH 7.4), NADPH regenerating system solution A (Corning Life Sciences), and NADPH regenerating system solution B (Corning Life Sciences) was incubated at 37° C. in a shaking incubator for 5 min. Next, compound was added in DMSO (final concentration 50 μM, 0.5% DMSO) before ice-cold mouse liver microsomes (Thermo Fisher, male CD-1 mice, pooled) were added (final protein concentration of 1 mg/mL). An aliquot was immediately removed, quenched with an equal volume of 100 μM internal standard and centrifuged at 13,000 rcf for 3 min. The reactions were incubated at 37° C. in a shaking incubator for 3 h. A second aliquot was removed and quenched. Samples were analyzed with the 5500 QTRAP LC/MS/MS system (Sciex, Framingham, MA) in Metabolomics Lab of Roy J. Carver Biotechnology Center, University of Illinois at Urbana-Champaign. Software Analyst 1.6.2 was used for data acquisition and analysis. The 1200 series HPLC system (Agilent Technologies, Santa Clara, CA) includes a degasser, an autosampler, and a binary pump. The LC separation was performed on an Agilent Sb-Aq column (4.6×50 mm, […]) with mobile phase A (0.1% formic acid in water) and mobile phase B (0.1% formic acid in acetonitrile). The flow rate was 0.3 mL/min. The linear gradient was as follows: 0-3 min, 100% A; 10-16 min, 5% A; 16.5-22 min, 100% A. The autosampler was set at 10° C. The injection volume was 1 μL. Mass spectra were acquired under both positive (ion spray voltage was +5500 V) and negative (ion spray voltage was −4500 V) electrospray ionization (ESI). The source temperature was 450° C. The curtain gas, ion source gas 1, and ion source gas 2 were 33, 65, and 60 psi, respectively. Multiple reaction monitoring (MRM) was used for quantitation.

Mouse MTD / tolerability = settings: mouse, in vivo, ip, 50 mg/kg
Method: The protocol was approved by the IACUC at the University of Illinois at Urbana-Champaign (Protocol Number: 16144 and 19181). In these studies, 10- to 12-week-old female C57BL/6 mice purchased from Charles River were used. The maximum tolerated dose (MTD) of single compound was determined first. […] All the mice were monitored for signs of toxicity for 2 weeks. For multiple doses, the compound was given by daily IP for 4 consecutive days, and mice were monitored for signs of toxicity for 1 month. MTD was the highest dosage with acceptable toxicity (e.g., <20% weight loss).

| Structure (SMILES) | Antibacterial activity relative to FA (S. aureus ATCC 29213 [1]; S. aureus ATCC 29213 MIC) | MIC (S. aureus ATCC 29213 [1]; Staphylococcus aureus, ATCC29213, WT S. aureus ATCC 29213, n = 3, read-out: MIC Without Human Serum) [µg/mL] | IC50 [2] [µM] | IC50 ([2]; Homo sapiens, HFF-1, 72 h) [µM] | Resistance frequency relative to FA (S. aureus ATCC 29213 [3]; head-to-head with FA, 2×-32× the MIC) | Resistance frequency relative to FA (S. aureus ATCC 29213 [3]; only at 32× the MIC) | Fold Change Increase in MIC with 50% Human Serum (S. aureus 29213) [X] | Metabolic Stability in Mouse Liver Microsomes (percent remaining) [4] [%] | Tolerability (Mouse MTD / tolerability) |
| --- | --- | --- | --- | --- | --- | --- | --- | --- | --- |
| CC(=O)O[C@H]1C[C@@]2(C)[C@@H](C[C@@H](O)[C@H]3[C@@]4(C)CC[C@@H](O)[C@@H](C)[C@@H]4CC[C@@]32C)/C1=C(\CCC=C1CCCCC1)C(=O)O [Compound 26, (Z)-2-((3R,4S,5S,8S,9S,10S,11R,13R,14S,16S)-16-acetoxy-3,11-dihydroxy-4,8,10,14-tetramethylhexadecahydro-17H-cyclopenta[a]phenanthren-17-ylidene)-5-cyclohexylidenepentanoic acid] | equipotent activity to FA | 0.125 (≈ 0.225 µM) | 53 ± 4 | > 50 | improvement in resistance frequency relative to FA | improvement | 16 | 61 ± 1 |  |
| CC(=O)O[C@H]1C[C@@]2(C)[C@@H](C[C@@H](O)[C@H]3[C@@]4(C)CC[C@@H](O)[C@@H](C)[C@@H]4CC[C@@]32C)/C1=C(\CCC=C(C)C)C(=O)O [Sodium fusidate, reference compound] |  |  |  |  |  |  |  |  | well tolerated |
